Assay results reported in patent publication US12162885B2, “Crystal form of Xevinapant for treating LA SCCHN” (CRYSTAL PHARMACEUTICAL (SUZHOU) CO., LTD., priority 2022, dated 2024).
“Also recorded” adds a separate entry of the source.

Key:
[1] = Stability of crystalline form in the formulation process (XRPD); format: physicochemical; conditions: formulation of Table 9, process of Table 10
Procedure: An XRPD of blank prescription (excipients) and the samples before and after the formulation were tested, and result is shown in FIG. 24. […] [table] [table] An XRPD of Blank prescription (excipients) and Form CSII before and after the formulation were tested, and result is shown in FIG. 28.

[2] = Hygroscopicity by DVS; format: physicochemical; conditions: from 0% RH to 80% RH
Procedure: Dynamic Vapor Sorption (DVS) was measured via an SMS (Surface Measurement Systems Ltd.) intrinsic DVS instrument. The instrument control software is DVS-Intrinsic control software. Typical Parameters for DVS test are as follows: • Temperature: 25° C. • Gas and flow rate: N2, 200 mL/min • dm/dt: 0.002%/min • RH range: 0% RH-95% RH DVS analyzer was applied to evaluate the hygroscopicity of Form CSI with about 10 mg of sample. […] DVS analyzer was applied to evaluate the hygroscopicity of Form CSII with about 10 mg of sample.

[3] = Humidity stability test with DVS analyzer; format: physicochemical; conditions: DVS 0% RH-95% RH
Procedure: Dynamic Vapor Sorption (DVS) was measured via an SMS (Surface Measurement Systems Ltd.) intrinsic DVS instrument. The instrument control software is DVS-Intrinsic control software. Typical Parameters for DVS test are as follows: • Temperature: 25° C. • Gas and flow rate: N2, 200 mL/min • dm/dt: 0.002%/min • RH range: 0% RH-95% RH
DVS analyzer was applied to evaluate the humidity stability of prior art solids, Form CSI and Form CSII. The appearance of Form CSI before and after humidity stability test is shown in FIG. 12, and an XRPD pattern of Form CSI before and after test is shown in FIG. 13. The appearance of Form CSII before and after humidity stability test is shown in FIG. 14, and an XRPD pattern of Form CSII before and after test is shown in FIG. 15.

[4] = Storage stability of drug substance with open package (HPLC purity, XRPD form, appearance); format: physicochemical
Procedure: An appropriate amount of Form CSI was packaged with corresponding condition, and then stored with open package under 25° C./60% RH, 40° C./75% RH and 60° C./75% RH conditions for a period. Appropriate amounts of prior art solids were packaged with corresponding condition, and then stored with open package under 25° C./60% RH and 60° C./75% RH conditions for a period. Chemical purity and crystalline form were checked by HPLC and XRPD, respectively. The appearance comparison of prior art solid A and Solid B before and after storage are shown in FIG. 19 and FIG. 20, respectively.
Open: Put the sample into a glass vial, cover the vial with aluminum foil, and punch 5-10 holes in the foil.
An appropriate amount of Form CSII and prior art solids were packaged with corresponding conditions, and then stored with open package under 25° C./60% RH and 60° C./75% RH for a period. Chemical purity and crystalline form were checked by HPLC and XRPD, respectively. The appearance comparison of prior art solid A and Solid B before and after storage are shown in FIG. 19 and FIG. 20, respectively.

[5] = Stability upon mechanical force (ball milling, tableting; XRPD); format: physicochemical; conditions: for Crystalline form before and after tableting (XRPD): manual tablet press, 20 kN, 6 mm round tooling; for Crystal form before and after ball milling (XRPD): milled 5 min at 500 rpm in a ball mill
Procedure: Form CSI was milled for 5 min at a vibration speed of 500 rpm in a ball mill. The sample before and after ball milling were checked by XRPD. […] An appropriate amount of Form CSI was compressed into a tablet using a manual tablet press under a pressure of 20 kN with a ϕ6 mm round tooling. Crystalline form before and after tableting were checked by XRPD. […] Form CSII was milled for 5 min at a vibration speed of 500 rpm in a ball mill. The sample before and after ball milling were checked by XRPD. […] An appropriate amount of Form CSII was compressed into a tablet using a manual tablet press under a pressure of 20 kN with a @6 mm round tooling. Crystalline form before and after tableting were checked by XRPD.

[6] = system: LA SCCHN; conditions: phase 2 clinical trial, combination with CRT compared to CRT alone; cited from earlier work
[7] = Initial (baseline of storage stability)

Row | SMILES | Crystalline form before and after the formulation process (XRPD) [1] | Weight gain [2] | Appearance after test [3] | Crystal change before and after humidity stability test (XRPD) [3] | Appearance ([4]; Initial) | Form ([4]; Initial) | Crystalline form before and after tableting (XRPD) [5] | Crystal form before and after ball milling (XRPD) [5] | Purity [4, 7] | Appearance ([4]; 25° C./60% RH, Open, 1 month) | Form ([4]; 25° C./60% RH, Open, 1 month) | Purity ([4]; 25° C./60% RH, Open, 1 month) | Appearance ([4]; 60° C./75% RH, Open, 1 week) | Form ([4]; 60° C./75% RH, Open, 1 week) | other results
1 | CN[C@@H](C)C(=O)N[C@H]1CN(C(=O)CC(C)C)CC[C@H]2CC[C@@H](C(=O)NC(c3ccccc3)c3ccccc3)N2C1=O [Form CSII] | keeps stable before and after the formulation process | 1.16% | Powder | no crystal change | Powder | Form CSII | kept stable after tableting | keeps stable after ball milling | – | – | – | – | – | – | Physical stability ([4]; 60° C./75% RH open condition): keeps physically stable for at least four weeks; Appearance ([4]; 60° C./75% RH, Open, 4 weeks): Powder; Form ([4]; 60° C./75% RH, Open, 4 weeks): No crystal change; also recorded: Form CSII
2 | CN[C@@H](C)C(=O)N[C@H]1CN(C(=O)CC(C)C)CC[C@H]2CC[C@@H](C(=O)NC(c3ccccc3)c3ccccc3)N2C1=O [Form CSI] | keeps stable before and after the formulation process | 0.46% | Powder | no crystal change | Powder | Form CSI | keeps stable after tableting | No crystal change | 99.50% | – | – | – | – | – | Time stable ([4]; 25° C./60% RH open condition): at least 6 months; Appearance ([4]; 25° C./60% RH, Open, 6 months): Powder; Form ([4]; 25° C./60% RH, Open, 6 months): Form CSI; Purity ([4]; 25° C./60% RH, Open, 6 months): 99.45%; Time stable ([4]; 40° C./75% RH open condition): at least 6 months; Appearance ([4]; 40° C./75% RH, Open, 6 months): Powder; Form ([4]; 40° C./75% RH, Open, 6 months): Form CSI; Purity ([4]; 40° C./75% RH, Open, 6 months): 99.45%; Time stable ([4]; 60° C./75% RH open condition): at least 3 months; Appearance ([4]; 60° C./75% RH, Open, 3 months): Powder; Form ([4]; 60° C./75% RH, Open, 3 months): Form CSI
3 | CN[C@@H](C)C(=O)N[C@H]1CN(C(=O)CC(C)C)CC[C@H]2CC[C@@H](C(=O)NC(c3ccccc3)c3ccccc3)N2C1=O.Cl [Prior art Solid A, reference compound] | – | – | Transparent solid | – | Powder | Amorphous | – | – | 98.77% | Powder | Amorphous | 98.65% | Gel | Gel | –
4 | CN[C@@H](C)C(=O)N[C@H]1CN(C(=O)CC(C)C)CC[C@H]2CC[C@@H](C(=O)NC(c3ccccc3)c3ccccc3)N2C1=O.O=C(O)C(F)(F)F [Prior art Solid B, reference compound] | – | – | Transparent solid | – | Powder | Amorphous | – | – | 98.87% | Powder | Amorphous | 98.73% | Gel | Gel | –
5 | CN[C@@H](C)C(=O)N[C@H]1CN(C(=O)CC(C)C)CC[C@H]2CC[C@@H](C(=O)NC(c3ccccc3)c3ccccc3)N2C1=O [Xevinapant, (5S,8S,10aR)—N-benzhydryl-5-((S)-2-(methylamino)propanamido)-3-(3-methylbutanoyl)-6-oxodecahydropyrrolo[l,2-a][l,5]diazocine-8-carboxamide] | – | – | – | – | – | – | – | – | – | – | – | – | – | – | Efficacy in treating patients with LA SCCHN [6]: demonstrated efficacy
